System: 616215-338-R-J1-PDC complex spheroid viability
Test: Anticancer human tumor 616215-338-R-J1-PDC patient-derived colon adenocarcinoma cell line growth inhibition [POLQ]
Settings: for IC50: curve of first compound; for viability, T/C: stronger effect = lower value
In short: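 PDC + HUVEC + MSC complex spheroids; POLQ inhibitors ± partner drugs; top conc. at/near clinical Cmax, else 10 microM (SN-38 1 microM), half-log dilutions; 37 degrees C, 5% CO2.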

[1] = second compound 0.0316 µM, first compound 0.0316 µM
[2] = second compound 0.0316 µM, first compound 0.1 µM
[3] = second compound 0.0316 µM, first compound 0.316 µM
[4] = second compound 0.0316 µM, first compound 1 µM
[5] = second compound 0.0316 µM, first compound 3.16 µM
[6] = second compound 0.0316 µM, first compound 10 µM
[7] = second compound 0.1 µM, first compound 0.0316 µM
[8] = second compound 0.1 µM, first compound 0.1 µM
[9] = second compound 0.1 µM, first compound 0.316 µM
[10] = second compound 0.1 µM, first compound 1 µM
[11] = second compound 0.1 µM, first compound 3.16 µM
[12] = second compound 0.1 µM, first compound 10 µM
[13] = second compound 0.316 µM, first compound 0.0316 µM
[14] = second compound 0.316 µM, first compound 0.1 µM
[15] = second compound 0.316 µM, first compound 0.316 µM
[16] = second compound 0.316 µM, first compound 1 µM
[17] = second compound 0.316 µM, first compound 3.16 µM
[18] = second compound 0.316 µM, first compound 10 µM
[19] = second compound 1 µM, first compound 0.0316 µM
[20] = second compound 1 µM, first compound 0.1 µM
[21] = second compound 1 µM, first compound 0.316 µM
[22] = second compound 1 µM, first compound 1 µM
[23] = second compound 1 µM, first compound 3.16 µM
[24] = second compound 1 µM, first compound 10 µM
[25] = second compound 3.16 µM, first compound 0.0316 µM
[26] = second compound 3.16 µM, first compound 0.1 µM
[27] = second compound 3.16 µM, first compound 0.316 µM
[28] = second compound 3.16 µM, first compound 1 µM
[29] = second compound 3.16 µM, first compound 3.16 µM
[30] = second compound 3.16 µM, first compound 10 µM
[31] = second compound 10 µM, first compound 0.0316 µM
[32] = second compound 10 µM, first compound 0.1 µM
[33] = second compound 10 µM, first compound 0.316 µM
[34] = second compound 10 µM, first compound 1 µM
[35] = second compound 10 µM, first compound 3.16 µM
[36] = second compound 10 µM, first compound 10 µM
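Note: spheroids exposed to compounds for one week before readout.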
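Throughout, for viability, T/C: percent viability relative to DMSO vehicle wells taken as 100%.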

With `COc1cc(C2c3cc4c(cc3C(OC3OC5COC(C)OC5C(O)C3O)C3COC(=O)C23)OCO4)cc(OC)c1O` (centres undefined) + COC1C(OC(N)=O)C(O)C(Oc2ccc3c(O)c(NC(=O)c4ccc(O)c(CC=C(C)C)c4)c(=O)oc3c2C)OC1(C)C the IC50 (second compound 0.0316 µM) was over 10000 nM, the IC50 (second compound 0.1 µM) was over 10000 nM and the IC50 (second compound 0.316 µM) was over 10000 nM. The IC50 (second compound 1 µM) was 8650 nM, the IC50 (second compound 3.16 µM) was over 10000 nM and the IC50 (second compound 10 µM) was over 10000 nM. It also gave a viability, T/C [1] of 100%, a viability, T/C [2] of 102% and a viability, T/C [3] of 95.3%. For the same molecule, the viability, T/C [4] was 83%, the viability, T/C [5] was 88.3% and the viability, T/C [6] was 54.2%. For the same molecule, the viability, T/C [7] was 117%, the viability, T/C [8] was 117% and the viability, T/C [9] was 95.6%. It also gave a viability, T/C [10] of 81.8%, a viability, T/C [11] of 77.1% and a viability, T/C [12] of 59.8%. The viability, T/C [13] was 108%, the viability, T/C [14] was 106% and the viability, T/C [15] was 93.4%. For the same molecule, the viability, T/C [16] was 85.8%, the viability, T/C [17] was 81% and the viability, T/C [18] was 55%. It also gave a viability, T/C [19] of 104%, a viability, T/C [20] of 113% and a viability, T/C [21] of 92.5%. For the same molecule, the viability, T/C [22] was 86.1%, the viability, T/C [23] was 74.5% and the viability, T/C [24] was 45.8%. The viability, T/C [25] was 111%, the viability, T/C [26] was 111% and the viability, T/C [27] was 100%. It also gave a viability, T/C [28] of 79%, a viability, T/C [29] of 68.1% and a viability, T/C [30] of 59.3%. The viability, T/C [31] was 106%, the viability, T/C [32] was 108% and the viability, T/C [33] was 84.5%. It also gave a viability, T/C [34] of 82.5%, a viability, T/C [35] of 74.1% and a viability, T/C [36] of 56.5%.
In the case of `COc1cccc2c1C(=O)c1c(O)c3c(c(O)c1C2=O)CC(O)(C(=O)CO)CC3OC1CC(N)C(O)C(C)O1` (centres undefined) + COC1C(OC(N)=O)C(O)C(Oc2ccc3c(O)c(NC(=O)c4ccc(O)c(CC=C(C)C)c4)c(=O)oc3c2C)OC1(C)C, the IC50 (second compound 0.0316 µM) is reported as 948 nM, the IC50 (second compound 0.1 µM) is reported as 762 nM and the IC50 (second compound 0.316 µM) is reported as 864 nM. For the same molecule, the IC50 (second compound 1 µM) was 964 nM, the IC50 (second compound 3.16 µM) was 778 nM and the IC50 (second compound 10 µM) was 1410 nM. For the same molecule, the viability, T/C [1] was 98.8%, the viability, T/C [2] was 102% and the viability, T/C [3] was 79.2%. For the same molecule, the viability, T/C [4] was 52.5%, the viability, T/C [5] was 8.11% and the viability, T/C [6] was 1.26%. The viability, T/C [7] was 110%, the viability, T/C [8] was 100% and the viability, T/C [9] was 69%. It also gave a viability, T/C [10] of 49.2%, a viability, T/C [11] of 9.57% and a viability, T/C [12] of 1.74%. For the same molecule, the viability, T/C [13] was 106%, the viability, T/C [14] was 97.8% and the viability, T/C [15] was 71.8%. The viability, T/C [16] was 55.5%, the viability, T/C [17] was 5.27% and the viability, T/C [18] was 0.89%. It also gave a viability, T/C [19] of 118%, a viability, T/C [20] of 110% and a viability, T/C [21] of 86.5%. The viability, T/C [22] was 53.7%, the viability, T/C [23] was 6.46% and the viability, T/C [24] was 0.25%. The viability, T/C [25] was 102%, the viability, T/C [26] was 105% and the viability, T/C [27] was 79.9%. It also gave a viability, T/C [28] of 41.9%, a viability, T/C [29] of 9.53% and a viability, T/C [30] of 0.27%. For the same molecule, the viability, T/C [31] was 99.6%, the viability, T/C [32] was 102% and the viability, T/C [33] was 76.2%. The viability, T/C [34] was 70.4%, the viability, T/C [35] was 7.3% and the viability, T/C [36] was 0.34%.
